Test results from patent US9453016B2, “Terpenoid spiro ketal compounds with LXR agonists activity, their use and formulations with them” (priority 2010, dated 2016).

Key:
LXRβ = LXRβ (Homo sapiens, UniProt P55055); experiment: LXR HTR-FRET coactivator (b-SRC1) recruitment assay, LXRβ; format: biochemical; details: FRET 12-point dose response, GST-LXR LBD
Description: (§1) The LXR assay is configured using time-resolved fluorescence resonance energy transfer technology (HTR-FRET) (see Albers et al., J. Biol. Chem. 2006 24; 281(8) 4920-30; Chin J, Assay Drug Dev. Technol. 2003 1(6):777-87).
(§2) In the presence of an agonist, a fusion protein of glutathione S-transferase (GST) and LXR ligand binding domain (GST-LXR LBD) associates with a biotin-labeled nuclear receptor coactivator (b-SRC1). A fluorescent signal is detected in the presence of Eu-labeled anti GST antibodies and streptavidin-labeled allophycocyanin (APC). FRET is made possible by agonist-dependent close interaction of the test proteins.
(§3) Compounds which act as agonists at the LXR ligand binding domain were detected by an increase in time-resolved fluorescence. This LXR-FRET was performed as described by Albers et al. (loc. cit.).
(§4) FRET-active compounds were assayed in a FRET 12-point dose response experiment to determine the EC50—values of the compounds mentioned in the following Table 5.

liver cancer cell lines = details: cited from earlier work
LXRα = LXRα (Homo sapiens, UniProt Q13133); experiment: LXR HTR-FRET coactivator (b-SRC1) recruitment assay, LXRα; format: biochemical; details: FRET 12-point dose response, GST-LXR LBD
Sequence of LXRα (Q13133 209-447 limits assumed): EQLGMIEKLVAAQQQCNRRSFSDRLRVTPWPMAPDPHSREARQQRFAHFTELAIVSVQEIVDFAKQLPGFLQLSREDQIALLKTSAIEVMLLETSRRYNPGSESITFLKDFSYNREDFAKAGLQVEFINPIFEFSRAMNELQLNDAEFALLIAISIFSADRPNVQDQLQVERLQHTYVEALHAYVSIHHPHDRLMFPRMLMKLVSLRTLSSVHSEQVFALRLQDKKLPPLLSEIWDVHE
Sequence of LXRα (Q15788 whole entry partner, the tested form may be a part): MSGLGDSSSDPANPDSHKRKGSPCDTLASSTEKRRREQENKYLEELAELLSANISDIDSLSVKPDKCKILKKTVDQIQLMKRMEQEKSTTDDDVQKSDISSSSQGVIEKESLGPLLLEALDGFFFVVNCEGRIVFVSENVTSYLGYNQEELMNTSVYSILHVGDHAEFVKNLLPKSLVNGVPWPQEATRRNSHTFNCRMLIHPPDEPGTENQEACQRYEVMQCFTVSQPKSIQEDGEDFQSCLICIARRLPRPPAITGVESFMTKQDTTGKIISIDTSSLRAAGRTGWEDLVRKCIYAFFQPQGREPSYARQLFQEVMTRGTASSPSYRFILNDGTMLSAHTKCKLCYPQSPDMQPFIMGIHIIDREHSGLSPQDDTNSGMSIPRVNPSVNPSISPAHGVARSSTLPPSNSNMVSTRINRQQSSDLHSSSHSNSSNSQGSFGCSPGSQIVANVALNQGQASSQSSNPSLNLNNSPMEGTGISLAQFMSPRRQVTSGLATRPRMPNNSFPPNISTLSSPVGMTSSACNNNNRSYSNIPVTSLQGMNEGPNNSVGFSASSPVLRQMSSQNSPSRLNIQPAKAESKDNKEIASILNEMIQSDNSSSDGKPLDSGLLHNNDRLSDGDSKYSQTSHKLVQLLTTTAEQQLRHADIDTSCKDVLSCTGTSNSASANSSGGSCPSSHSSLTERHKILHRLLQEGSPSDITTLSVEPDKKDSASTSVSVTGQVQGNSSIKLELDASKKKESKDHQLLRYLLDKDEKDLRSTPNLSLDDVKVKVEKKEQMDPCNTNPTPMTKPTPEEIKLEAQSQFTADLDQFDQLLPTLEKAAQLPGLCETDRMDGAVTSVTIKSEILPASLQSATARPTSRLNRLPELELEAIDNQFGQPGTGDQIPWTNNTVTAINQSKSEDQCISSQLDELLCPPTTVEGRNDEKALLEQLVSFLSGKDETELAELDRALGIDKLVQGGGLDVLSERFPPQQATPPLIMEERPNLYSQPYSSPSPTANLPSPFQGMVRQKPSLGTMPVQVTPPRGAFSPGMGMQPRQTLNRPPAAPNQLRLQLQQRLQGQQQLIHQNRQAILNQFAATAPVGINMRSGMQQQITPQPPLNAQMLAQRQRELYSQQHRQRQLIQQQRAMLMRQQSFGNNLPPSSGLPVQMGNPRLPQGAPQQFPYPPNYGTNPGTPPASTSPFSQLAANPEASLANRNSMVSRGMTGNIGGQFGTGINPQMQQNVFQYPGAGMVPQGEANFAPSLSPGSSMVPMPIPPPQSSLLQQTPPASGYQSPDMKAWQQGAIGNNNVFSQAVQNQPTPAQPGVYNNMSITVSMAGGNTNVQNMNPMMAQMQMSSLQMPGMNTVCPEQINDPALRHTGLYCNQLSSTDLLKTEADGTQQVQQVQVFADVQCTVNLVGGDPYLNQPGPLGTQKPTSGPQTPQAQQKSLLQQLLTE
Description: as §1, §2, §3, §4

lung cancer cells = details: cited from earlier work
[1] = tested on: female APOE*3-Leiden(E3L).CETP transgenic mice; experiment: Plasma lipids in APOE*3Leiden.CETP transgenic mice on Western-type diet; format: in vivo; details: for Plasma cholesterol: mean ± SD of 10 mice
Description: The aim of the study was to evaluate the effects of extract IMD-XT0022 (see example 1c) on plasma lipids in female APOE*3-Leiden(E3L).CETP transgenic mice (hereinafter referred to as APOE*3Leiden mice). The effects were compared with phytosterol as a positive control.
Forty female APOE*3Leiden mice (from the specific pathogen free breeding stock at TNO-Metabolic Health Research, Leiden, Netherlands), 15-16 weeks of age at the start of the experiment were housed during the experiment in Macrolon® cages (maximally 5 animals per cage) in clean-conventional animal rooms (relative humidity 50-60%, temperature about 21° C., light cycle 7 am to 7 pm). Individual mice were marked by ear-punch holes and supplied with food and acidified tap water ad libitum. Dietary ingredients were provided by Hope Farms (Woerden, the Netherlands): The mice received a semi-synthetic modified Western-type diet (WTD) as described by Nishina et al., J. Lipid. Res. 1990:31:859, containing cholesterol (0.1% w/w, final concentration) and saturated fat (15% w/w cacao butter). The animals were put on a Western-type diet with 0.1% cholesterol for 4 weeks (run-in period). After the run-in period, APOE*3Leiden mice were sub-divided into three groups of 10 mice each and treated during 5 weeks with the following compounds: Control group (vehicle gavage, Western-type diet without diet additions), extract group (Western-type diet without diet additions, 100 mg/kg/d extract IMD-XT0022 via daily gavage) or phytosterol group (vehicle gavage, Western-type diet with addition of 1 wt. % of free phytosterol). One week before first administration of IMD-XT0022 mice were gavaged with vehicle to get used to the procedure. Food intake and body weight were measured weekly during the treatment period (t=0, 1, 2, 3, 4 and 5 weeks). After two and five weeks of treatment blood samples were taken after a 4 hour fasting period. After 3 weeks of treatment vehicle Delios V oil (a medium-chain triglyceride oil obtained from BASF Personal Care and Nutrition GmbH, Düsseldorf, Germany) was replaced by Polyethylengycol-400 (PEG-400, Sigma-Aldrich, Steinheim, Germany) for all groups.
Extract IMD-XT0022 was administered daily by oral gavage between 8.00 and 11.00 am CET. In the phytosterol group phytosterol was administered orally as admix to the WTD (1% w/w free phytosterol). The control group and the phytosterol group received the vehicle accordingly. The gavage volume during the treatment period was 10 ml/kg and was adjusted weekly based on the measured body weight of the respective week.
Plasma cholesterol, triglycerides and HDL cholesterol were measured individually at t=0, 2 and 5 weeks. On group level ALT, AST levels and lipoprotein profiles (at t=0 and 5 weeks) were measured. Feces were collected (per cage) during week 5.
On the mornings of the blood sampling time points of t=weeks 2 and t=5 weeks, gavages were not performed between 8.00-11.00 am, but were performed after the blood sampling. At t=5 weeks, 3 days after the last blood sampling, mice were sacrificed after a 4 hour fasting period (and without giving a gavage on the day of sacrifice) by CO2 suffocation. EDTA-plasma was collected via heart puncture and stored at <−70° C. and several organs were collected.
After a 4 weeks run-in period, 10 low-responder mice were removed from the study. The remaining 30 mice where subdivided into 3 groups of 10 mice each, matched for body weight, plasma cholesterol, triglycerides, HDL-cholesterol and age (t=0) […]

[2] = tested on: female APOE*3-Leiden(E3L).CETP transgenic mice; experiment: Pooled lipoprotein profiles (FPLC) in APOE*3Leiden.CETP mice; format: in vivo; details: after 5 weeks of treatment, pooled plasma per group

Sequence of LXRβ (P55055 222-460 limits assumed): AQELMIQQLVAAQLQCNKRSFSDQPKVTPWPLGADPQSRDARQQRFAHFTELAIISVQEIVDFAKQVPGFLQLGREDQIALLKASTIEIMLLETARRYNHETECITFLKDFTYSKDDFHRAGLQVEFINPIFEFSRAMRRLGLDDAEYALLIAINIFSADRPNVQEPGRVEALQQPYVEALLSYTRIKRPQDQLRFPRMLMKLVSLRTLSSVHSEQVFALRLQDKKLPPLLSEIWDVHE
Sequence of LXRβ (Q15788 whole entry partner, the tested form may be a part): as the sequence (Q15788 whole entry partner, the tested form may be a part) above

EC50 (LXRβ) [µM] | EC50 (LXRα) [µM] | Compound | also measured
25 | 1.4 | COc1ccc2c(c1C)C=C[C@]1(C)[C@@H]3CC[C@]21O[C@@]1(OC(C)(C)[C@@H](C)[C@H]1O)[C@H]3C [Compound 1, (2S,3S,3′R,4R,4′S,4aR,10bR)-4,4′,4a,5′-Tetrahydro-8-methoxy-3,4′,4a,5′,5′,7-hexamethyl-spiro[4,10b-ethano-10bH-naphtho[1,2-b]pyran-2(3H),2′(3′H)-furan]-3′-ol] | Biological activities against liver cancer cell lines (liver cancer cell lines): confirmed the biological activities
5.5 | 1.1 | Cc1c(O)ccc2c1C=C[C@]1(C)[C@@H]3CC[C@]21O[C@@]1(OC(C)(C)[C@@H](C)[C@H]1O)[C@H]3C [Compound 2, (2S,3S,3′R,4R,4′S,4aR,10bR)-4,4′,4a,5′-tetrahydro-3,4′,4a,5′,5′,7-hexamethyl-spiro[4,10b-ethano-10bH-naphtho[1,2-b]pyran-2(3H),2′(3′H)-furan]-3′,8-diol] | 
24 | 11 | COc1ccc2c(c1CO)C=C[C@]1(C)[C@@H]3CC[C@]21O[C@@]1(OC(C)(C)[C@@H](C)[C@H]1O)[C@H]3C [Compound 3, (2S,3S,3′R,4R,4′S,4aR,10bR)-4,4′,4a,5′-Tetrahydro-3′-hydroxy-8-methoxy-3,4′,4a,5′,5′-pentamethyl-spiro[4,10b-ethano-10bH-naphtho[1,2-b]pyran-2(3H),2′(3′H)-furan]-7-methanol] | 
34 | 31 | COc1ccc2c(c1C)C=C[C@@]1(C)[C@]23CC[C@]1(O)[C@H](C)[C@]1(OC(C)(C)[C@@H](C)[C@H]1O)O3 [Compound 7, (2S,3S,3′R,4R,4′S,4aR,10bR)-4,4′,4a,5′-Tetrahydro-17-hydroxy-8-methoxy-3,4′,4a,5′,5′,7-hexamethyl-spiro[4,10b-ethano-10bH-naphtho[1,2-b]pyran-2(3H),2′(3′H)-furan]-3′-ol] | 
31 | 24 | COc1ccc2c(c1C)CC(=O)[C@]1(C)[C@@H]3CC[C@]21O[C@@]1(OC(C)(C)[C@@H](C)[C@H]1O)[C@H]3C [Compound 8, (2S,3S,3′R,4R,4aR,4′S,10bS)-3′-hydroxy-8-methoxy-3,4a,4′,5′,5′,7-hexamethyl-4,4a,4′,5′-tetrahydro-3H,3′H-spiro[4,10b-ethanobenzo[h]chromene-2,2′-furan]-5(6H)-one] | 
 |  | COc1ccc2c(c1C)CC[C@]1(C)[C@@H]3CC[C@]21O[C@@]1(OC(C)(C)[C@@H](C)[C@H]1O)[C@H]3C [Compound 14, (2S,3S,3′R,4R,4aR,4′S,10bR)-8-methoxy-3,4a,4′,5′,5′,7-hexamethyl-4,4a,4′,5,5′,6-hexahydro-3H,3′H-spiro[4,10b-ethanobenzo[h]chromene-2,2′-furan]-3′-ol] | Biological activities against liver cancer cell lines (liver cancer cell lines): confirmed the biological activities
 |  | CO[C@@H]1C=C2C3CC[C@H](C(C)/C=C/C(C)C(C)C)[C@@]3(C)CC[C@@H]2[C@@]2(C)CC[C@H](O)C[C@]12O (stereo partly drawn) [blazein] | Apoptosis in lung cancer cells (lung cancer cells): induced apoptosis
 |  | phytosterol | Decrease of plasma cholesterol as compared to the control group ([1]; after 5 weeks of treatment): 16%; Decrease of plasma triglycerides as compared to the control group ([1]; after 5 weeks of treatment): 36%; Plasma HDL, effect as compared to the control group ([1]; mouse, in vivo): not affected; Plasma cholesterol ([1]; t = 0 weeks (after run-in, before treatment)): 10.9 ± 1.6 mM; Plasma cholesterol ([1]; t = 2 weeks of treatment, extract 100 mg/kg/d gavage, phytosterol 1 wt.% in diet): 9.4 ± 1.3 mM; Plasma cholesterol ([1]; t = 5 weeks of treatment, extract 100 mg/kg/d gavage, phytosterol 1 wt.% in diet): 8.1 ± 1.8 mM; Decrease in the area under the curve of the VLDL peak, cholesterol [2]: 25%; Decrease in the area under the curve of the VLDL peak, phospholipid [2]: 21%

Compound | EC50 (LXRβ) [µM] | EC50 (LXRα) [µM] | also measured
C[C@H]1[C@@H](O)[C@]2(OC1(C)C)O[C@]13CC[C@H]([C@@H]2C)[C@@]1(C)CC=C1C3=CC(=O)C2=CC(=O)CC[C@@]21C [Compound 5, (14β,22S,23R)-14,22:22,25-Diepoxy-23-hydroxy-ergosta-4,7,9-triene-3,6-dione] | 24 | 7.6 | 
C[C@H]1[C@H](O)[C@@]2(OC1(C)C)O[C@]13CC[C@H]([C@@H]2C)[C@@]1(C)C=CC1=C3C=CC2=CC(=O)CC[C@@]21C [Compound 6, (14β,22S,23S)-14,22:22,25-Diepoxy-23-hydroxy-ergosta-4,6,8,11-tetraen-3-one] | 14 | 5.5 | 
C[C@H]1[C@@H](O)[C@@]2(OC1(C)C)O[C@]13CC[C@H]([C@@H]2C)[C@@]1(C)[C@H](O)C=C1C3=CC(=O)C2=CC(=O)CC[C@@]21C [Compound 9, (1R,2S,2′S,3′R,4aS,4′S,10aR,12R,12aS)-3′,12-dihydroxy-2,4′,5′,5′,10a,12a-hexamethyl-4′,5′,10,10a,12,12a-hexahydro-1H,3′H-spiro[1,4a-ethanonaphtho[1,2-h]chromene-3,2′-furan]-6,8(2H,9H)-dione] | 4.6 | 1 | 
